According to patent US12501900B2, “Heterocyclyl pyridazine as fungicidal compounds” (Bayer Aktiengesellschaft, priority 2018, dated 2025):

Tests used:
Pyrenophora teres = experiment: In vivo preventive test on Pyrenophora teres (net blotch on barley); conditions: 240 h, 500 ppm of active ingredient, preventive spray on barley, evaluated 10 days after inoculation, read-out: efficacy
Septoria tritici = Septoria tritici in vitro cell test; format: cell-based; conditions: Zymoseptoria tritici, 168 h; 20 ppm of active ingredient; liquid culture, 7 days incubation; read-out: efficacy (inhibition of fungal growth)
Method: Example: Septoria tritici In Vitro Cell Test • Solvent: DMSO • Culture medium: 14.6 g anhydrous D-glucose (VWR), 7.1 g Bacteriological Peptone (Oxoid), • 1.4 g granulated Yeast Extract (Merck), QSP 1 liter • Inoculum: spore suspension Fungicides were solubilized in DMSO and the solution used to prepare the required range of concentrations. The final concentration of DMSO used in the assay was ≤1%. A spore suspension of Septoria tritici was prepared and diluted to the desired spore density. Fungicides were evaluated for their ability to inhibit spore germination and mycelium growth in liquid culture assay. The compounds were added in the desired concentration to the culture medium with spores. After 7 days incubation, fungi-toxicity of compounds was determined by spectrometric measurement of mycelium growth. Inhibition of fungal growth was determined by comparing the absorbance values in wells containing the fungicides with the absorbance in control wells without fungicides.

[1] = Measurement of LogP values by HPLC on reversed phase columns (EEC directive 79/831 Annex V.A8), methods [a], [b], [c]; format: physicochemical; conditions: HPLC on reversed phase column, method [a]; read-out: Log P
Procedure, shortened: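 Log P determined by reversed-phase HPLC following EEC directive 79/831 Annex V.A8. Multiple values within one method are listed joined by "+". Lambda-max taken from UV spectra over 200–400 nm at chromatographic peak maxima.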

Compound	pest or weed control at 500 ppm (Pyrenophora teres) [%]	inhibition at 20 ppm (Septoria tritici) [%]	chromatographic logP [1]
COc1cccc(Oc2nnc(Cl)cc2C2=NOCC(Cc3ccc(C)cc3C)N2)c1F (racemic) [I-005, rac-3-[6-chloro-3-(2-fluoro-3-methoxy-phenoxy)pyridazin-4-yl]-5-[(2,4-dimethylphenyl)methyl]-5,6-dihydro-4H-1,2,4-oxadiazine]	90 to 100	70 to 79	3.91
C=C(OCC)c1cc(C2=NOCC(Cc3ccc(C)cc3C)N2)c(Oc2cccc(C(F)(F)F)c2)nn1 (racemic) [I-009, rac-5-[(2,4-dimethylphenyl)methyl]-3-[6-(1-ethoxyvinyl)-3-[3-(trifluoro-methyl)phenoxy]pyridazin-4-yl]-5,6-dihydro-4H-1,2,4-oxadiazine]	90 to 100	90 to 100	4.98
FC(F)(F)c1cccc(Oc2nnc(Cl)cc2C2=NOCC(Cc3ccc(Br)cc3Cl)N2)c1 (racemic) [I-016, rac-5-[(4-bromo-2-chloro-phenyl)methyl]-3-[6-chloro-3-[3-(trifluoromethyl)phenoxy]pyridazin-4-yl]-5,6-dihydro-4H-1,2,4-oxadiazine]	90 to 100	90 to 100	4.61
COCCOc1c(Cl)nnc(Oc2cccc(C(F)(F)F)c2)c1C1=NOCC(Cc2ccc(C)cc2C)N1 (racemic) [I-072, rac-3-[6-chloro-5-(2-methoxyethoxy)-3-[3-(trifluoro-methyl)phenoxy]pyridazin-4-yl]-5-[(2,4-dimethylphenyl)methyl]-5,6-dihydro-4H-1,2,4-oxadiazine]	80 to 89	80 to 89	4.18
